Measurements reported in patent US7217534B2, “Methods of screening apoptosis modulating compounds, compounds identified by said methods and use of said compounds as therapeutic agents” (Institut Pasteur, priority 2002, dated 2007).

Key:
[1] = test system: IL-4-stimulated cells (TS1αβ murine T cell line); experiment: Cholesterol depletion, raft association of Bad and Lck by CTx-FITC confocal microscopy; format: cell-based; settings: 10 mM, 30 min, 37° C., serum-free medium
Experimental: A) IL-4-stimulated cells were serum-starved for 30 min and then treated with or without 10 mM M-β-CD for 30 min at 37° C. before incubation with CTx-FITC and anti-Bad or anti-Lck antibodies, followed by Cy3-labeled secondary antibody. Then, cells were analyzed by confocal microscopy. Similar results were obtained in two independent experiments. Single confocal sections show green (FITC) and red (Cy3) fluorescence. B) IL-4-stimulated cells were serum-starved for 30 min and then treated with or without 10 mM M-β-CD for 30 min at 37° C., then washed and transferred to complete medium supplemented with IL-4. At different times, apoptosis was measured. Sub G1 region of the fluorescence scale was used to determine the percentage of cells present in the initial step of apoptosis. Similar results were obtained in two independent experiments. White bars, control cells; grey bars, M-β-CD-treated cells. […]
IL-4-stimulated or -deprived cells were fixed with 1% paraformaidehyde for 5 min on ice, permeabilized and then incubated with CTx-FITC (20 min, 6 μg/ml) and anti-Bad antibody for 1 h in PBS-BSA. […] Finally, and after several washing steps, cells were incubated with methanol at −20° C. for 10 min, mounted wiht Vectashield medium, and analyzed by confocal microscopy. The program used for quantification of samples was Leica TSC NT version 1.5.451 (Leica, Lasertechnik, Heidelberg, Germany). […]

[2] = test system: IL-4-stimulated cells (TS1αβ murine T cell line); experiment: Apoptosis by cell cycle analysis (sub-G1 region, propidium iodide flow cytometry); format: cell-based
Experimental: A) IL-4-stimulated cells were serum-starved for 30 min and then treated with or without 10 mM M-β-CD for 30 min at 37° C. before incubation with CTx-FITC and anti-Bad or anti-Lck antibodies, followed by Cy3-labeled secondary antibody. Then, cells were analyzed by confocal microscopy. Similar results were obtained in two independent experiments. Single confocal sections show green (FITC) and red (Cy3) fluorescence. B) IL-4-stimulated cells were serum-starved for 30 min and then treated with or without 10 mM M-β-CD for 30 min at 37° C., then washed and transferred to complete medium supplemented with IL-4. At different times, apoptosis was measured. Sub G1 region of the fluorescence scale was used to determine the percentage of cells present in the initial step of apoptosis. Similar results were obtained in two independent experiments. White bars, control cells; grey bars, M-β-CD-treated cells.
(§1) TS1αβ is a murine T cell line that can be propagated independently in IL-2, IL-4 or IL-9 Cells were cultured in RPMI-1640 as previously described (Pitton et al., 1993, Cytokine 5, 362–371). Murine rIL-4 or supernatant of a HeLa subline transfected with PKCRIL-4.neo was used as a source of murine IL-4. Fluorescein isothiocyanate (FITC-)-labeled cholera toxin (CTx) B subunit, CTx-Biotin and methyl-β-cyclodextrin (M-β-CD) were obtained from Sigma-Aldrich (St. Louis, Mo.). Cy3- and Cy2-conjugated secondary antibodies were purchased from Molecular Probes (Eugene, Oreg.). Anti-mitochondria serum (mito 2813, pyruvate dehydrogenase) was a gift from Dr A. Serrano (CNB, Madrid, Spain).
A total of 2×10^5 IL-4-stimulated cells treated with or without M-β-CD were washed, resuspended in PBS, permeabilized with 0.1% Nonidet P-40 and stained with 50 μg/ml propidium iodide (PI). At different times, samples were analyzed using a EpicsXL flow cytometer (Coulter, Hialeah, Fla.). Apoptosis was measured as the percentage of cells in the sub-G1 region of the fluorescence scale having an hypodiploid DNA content.
Given that exclusion of Bad from rafts was also observed in apoptotic IL-4-deprived cells (FIG. 3A), it was analyzed whether Bad association to rafts and its integrity was necessary for prevention of apoptosis. For this purpose, IL-4-stimulated cells were treated for 30 min with or without M-β-CD in serum-free medium, then washed, resuspended in IL-4-supplemented complete medium and analyzed for induction of apoptosis at different times (FIG. 4B). […] Eight hours upon treatment, the amount of apoptotic cells detected in treated and non treated cells were similar because addition of serum restores the lipid composition of the membrane.

Bad = experiment: Serine phosphorylation of Bad by immunoprecipitation and western blot; format: cell-based, murine; settings: anti-Bad serine 136, 112 and 155 blots, IL-4-stimulated cells
Description: A) Cytoplasmic extracts from IL-4-stimulated or -deprived cells were immunoprecipitated with anti-Bad antibody and blotted with anti-Bad serine 136, 112 and 155. As internal control, the blot was developed with anti-Bad. Positive control for serine 112 and 136 phosphorylation, IL-2-stimulated cells; positive control for serine 155 phosphorylation of Bad, Bad-transfected COS cells (C). […] Molecular weight of the corresponding proteins is shown.
as §1, with “Spain). […]” for “Spain).”
Posttranslational modifications of Bad such as phosphorylation, and its role in Bad localization in rafts or mitochondria was further analyzed. […]

methyl-β-cyclodextrin [M-β-CD] was tested, and the “raft formation and association of Lck and Bad with rafts” value [1] was “severe disruption of raft formation and association of Lck and Bad with rafts”, the “time of highest level of apoptosis after treatment” value ([2]; 30 min treatment in serum-free medium, then IL-4-supplemented complete medium) was 5 h and the “level of apoptosis compared with control non treated cells” value ([2]; 30 min treatment in serum-free medium, then IL-4-supplemented complete medium, different times) was “stronger level of apoptosis”. The “amount of apoptotic cells in treated and non treated cells” value ([2]; eight hours upon treatment, serum added back) was “similar”.

B1: IL-4: Murine rIL-4 or supernatant of a HeLa subline transfected with PKCRIL-4.neo, used as source of murine IL-4 (protein, UniProt P07750 21-140, looked up)
Interleukin-4: HIHGCDKNHLREIIGILNEVTGEGTPCTEMDVPNVLTATKNTTESELVCRASKVLRIFYLKHGKTPCLKKNSSVLMELQRLFRAFRCLDSSISCTMNESKSTSLKDFLESLKSIMQMDYS
B1 was tested, and the “level of apoptosis in IL-4-stimulated cells” value ([2]; control IL-4-stimulated cells versus IL-4-deprived cells, 4 h to 24 h) was “no significant level of apoptosis” and the “serine phosphorylation of Bad” value (Bad) was “induces serine 136 phosphorylation of Bad, but not serine 112 and 155”.
